# In publication PMC4660582, “Cyclic thrombospondin-1 mimetics: grafting of a thrombospondin sequence into circular disulfide-rich frameworks to inhibit endothelial cell migration” (Bioscience Reports, 2015):
# Where a SMILES comes first, the peptide text is derived from it. Bridges are numbered along the chain shown (N, C = ends). [ ]: non-standard residue; d: D form.
# Key:
# [1] = Stability assay in human serum; format: in vitro ADME; conditions: initial 300 μM; for remaining at 24 h, 300 μM: male, human, human serum, over a 24-h period, read-out: peptide remained in human serum
# Experimental: All peptides were tested on human serum from male AB plasma (Sigma–Aldrich) at an initial concentration of 300 μM. Peptide incubation time points were 0, 2, 4, 8, 16 and 24 h. Samples were prepared according to previously described methods. Briefly, 90 μL of supernatant was taken at each time point and chromatographed on a 0.3 mL/min Phenomenex column using a linear 1%/min gradient of 0–50% solvent B on an analytical reverse-phase HPLC (Agilent). The elution times for all peptides were determined by the serum control at 0 h. The stability of each peptide for each time point was calculated as the height of the serum-treated peptide peak at 215 nm as percentage of the height of the 0-h serum-treated control. Experiments were done in triplicate.
# Human red blood cells = test: Hemolytic assay; format: cell-based; conditions: peptides 0.01–50 μM; melittin positive control from 20 μM
# Experimental: Human red blood cells were used to measure the hemolysis of all peptides, with melittin used as a positive control. Peptides concentrations were 50 μM, 25 μM, 10 μM, 5 μM, 1 μM, 0.5 μM, 0.1 μM and 0.01 μM. Melittin was tested at eight concentrations, with two-fold dilution from a concentration of 20 μM. Sample absorbance was measured at 415 nm using a BioTek PowerWave XS instrument, as described previously. Experiments were done in triplicate.
# [2] = system: PC3 cells (prostate cancer cells); test: Cell proliferation assay (MTT, 72 h); format: cell-based; conditions: PC-3; 72-h period
# Experimental: (§1) All cells were maintained using the media conditions described above, and passages 2–10 were used for all cell lines. Cell numbers of 2.5×10^3 cells/well (100 μL) were used for both HUVECs and HMVECs, and 1.5×10^3 cells/well (100 μL) were used for other cell lines in this assay. All cells were allowed to attach for 24 h after plating. Cells were treated with fresh media the next day, before the addition of peptides and then incubated for 72 h. Similar peptide concentrations to those mentioned above (in the cell cytotoxicity section) were used. 0.1% (v/v) Triton X-100 (10 μL) was used as a positive control. After 72 h of incubation, MTT and DMSO were added and analysed using the same method as described above.
# [3] = system: HT-29 (colon cancer cells); test: Cell proliferation assay (MTT, 72 h); format: cell-based; conditions: 72-h period
# Experimental: as §1
# [4] = system: matriptase over-expressed PC-3 cell line; parameters: method as in PMID 24696092; conditions: cited from earlier work
# HMVECs = system: HMVECs; parameters: method as in PMID 15716381; conditions: at 5 nM; cited from earlier work
# HUVECs = system: HUVECs; parameters: method as in PMID 15716381; conditions: at 16 nM; cited from earlier work
compound,measurement,setting,value
"CC[C@@H](C)[C@H]1NC(=O)[C@H](C(C)C)NC(=O)CNC(=O)[C@@H]2CSSC[C@@H]3NC(=O)[C@H](CC(=O)O)NC(=O)[C@H](CO)NC(=O)[C@H](CC(=O)O)NC(=O)[C@H](CCCNC(=N)N)NC(=O)[C@H](CCCNC(=N)N)NC(=O)[C@@H]4CSSC[C@H](NC(=O)[C@H]([C@@H](C)CC)NC(=O)[C@H](CSSC[C@H](NC(=O)[C@H](CCCNC(=N)N)NC(=O)[C@H]([C@@H](C)CC)NC(=O)[C@H](CCCNC(=N)N)NC(=O)[C@H]([C@@H](C)O)NC1=O)C(=O)N1CCC[C@H]1C(=O)N[C@@H](CCCCN)C(=O)N[C@@H]([C@@H](C)CC)C(=O)N[C@@H](CC(C)C)C(=O)N[C@@H](CCCCN)C(=O)N[C@@H](CCCCN)C(=O)N4)NC(=O)[C@H](C)NC(=O)CNC(=O)[C@@H]1CCCN1C3=O)C(=O)N[C@@H](CCCNC(=N)N)C(=O)NCC(=O)N[C@@H](CC(N)=O)C(=O)NCC(=O)N[C@@H](Cc1ccc(O)cc1)C(=O)N2 [MCo-TSP-1] (cyclo(ACICRGNGYCGV[dI]TRIRCPKILKKCRRDSDCPG); disulfide 2-18, 4-25, 10-31)","remaining at 24 h, 300 μM",[1],> 50%
"CC[C@@H](C)[C@H]1NC(=O)[C@H](C(C)C)NC(=O)CNC(=O)[C@@H]2CSSC[C@H](NC(=O)[C@H](CCCNC(=N)N)NC(=O)[C@H]([C@@H](C)CC)NC(=O)[C@H](CCCNC(=N)N)NC(=O)[C@H]([C@@H](C)O)NC1=O)C(=O)N[C@@H]([C@@H](C)O)C(=O)N[C@@H](CCCCN)C(=O)N[C@@H](CO)C(=O)N[C@@H]([C@@H](C)CC)C(=O)N1CCC[C@H]1C(=O)N1CCC[C@H]1C(=O)N[C@@H]([C@@H](C)CC)C(=O)N2 [SFTI-TSP-1, CTKSIPPICGViTRIR]","remaining at 24 h, 300 μM",[1],> 50%
"CC[C@@H](C)[C@@H](NC(=O)[C@@H](NC(=O)CN)C(C)C)C(=O)N[C@H](C(=O)N[C@@H](CCCNC(=N)N)C(=O)N[C@H](C(=O)N[C@@H](CCCNC(=N)N)C(=O)O)[C@@H](C)CC)[C@@H](C)O [linear TSP-1 heptapeptide, GViTRIR] (H-GV[dI]TRIR-OH)",time within which degraded in human serum,[1],≤ 24 h
CC[C@H](C)[C@H](NC(=O)CN)C(=O)NCC(=O)N[C@@H](C)C(=O)N[C@H](C(=O)N[C@@H](CC(C)C)C(=O)N[C@@H](CCCCN)C(=O)N[C@H](C(=O)N[C@@H](CC(C)C)C(=O)N[C@H](C(=O)N[C@H](C(=O)NCC(=O)N[C@@H](CC(C)C)C(=O)N1CCC[C@H]1C(=O)N[C@@H](C)C(=O)N[C@@H](CC(C)C)C(=O)N[C@H](C(=O)N[C@@H](CO)C(=O)N[C@@H](Cc1c[nH]c2ccccc12)C(=O)N[C@H](C(=O)N[C@@H](CCCCN)C(=O)N[C@@H](CCCNC(=N)N)C(=O)N[C@@H](CCCCN)C(=O)N[C@@H](CCCNC(=N)N)C(=O)N[C@@H](CCC(N)=O)C(=O)N[C@@H](CCC(N)=O)C(N)=O)[C@@H](C)CC)[C@@H](C)CC)[C@@H](C)O)[C@@H](C)O)C(C)C)C(C)C [melittin],haemolysis of human red blood cells,Human red blood cells,highly haemolytic
Momordica cochinchinensis trypsin inhibitor-II [MCoTI-II],anti-proliferative effect,[2],minor anti-proliferative effects
same,anti-proliferative effect,[3],minor anti-proliferative effects
same,effect on invasive cell migration,[4],inhibited invasive cell migration
sunflower trypsin inhibitor-1 [SFTI-1],anti-proliferative effect,[2],minor anti-proliferative effects
same,anti-proliferative effect,[3],minor anti-proliferative effects
thrombospondin-1 type-1 repeats [TSR],inhibition on HMVECs (migration),HMVECs,35%
same,inhibition on HUVECs (migration),HUVECs,60%
